In article PMC6844378, “Structure activity relationship studies on Amb639752: toward the identification of a common pharmacophoric structure for DGKα inhibitors” (Journal of Enzyme Inhibition and Medicinal Chemistry, 2019):
Where two headings read alike, the source gives them in different places.

Legend:
5HT2A = tested on: 5HT2A; set-up: method as in PMID 27974147; conditions: antagonistic activity on 5-HT2 receptors; cited from earlier work
[1] = set-up: method as in PMID 26420856; conditions: mice, rapid clearance; cited from earlier work
DGK isoforms = tested on: DGK isoforms; set-up: method as in PMID 10718334, PMID 23949095; conditions: cited from earlier work
[2] = tested on: T cells from XLP-1 patients; set-up: method as in PMID 26764158; conditions: pre-treatment with inhibitor; cited from earlier work
XLP-1 model = conditions: cited from earlier work
DGKα [3] = target: T1, DGKα (Homo sapiens, UniProt P23743); test: DGK assay on OST-DGKα enriched MDCK homogenates; assay type: biochemical; set-up: expressed in transfected cells; host or cells: MDCK cells (vector-infected, doxycycline-induced), crude homogenate; conditions: for remaining activity at 100 µM: percentage of residual DGKα activity compared to DMSO control, OST-DGKα overexpressing cell lysates, saturating DAG and ATP, read-out: Residue activity at 100 µM
T1 sequence (P23743 whole entry): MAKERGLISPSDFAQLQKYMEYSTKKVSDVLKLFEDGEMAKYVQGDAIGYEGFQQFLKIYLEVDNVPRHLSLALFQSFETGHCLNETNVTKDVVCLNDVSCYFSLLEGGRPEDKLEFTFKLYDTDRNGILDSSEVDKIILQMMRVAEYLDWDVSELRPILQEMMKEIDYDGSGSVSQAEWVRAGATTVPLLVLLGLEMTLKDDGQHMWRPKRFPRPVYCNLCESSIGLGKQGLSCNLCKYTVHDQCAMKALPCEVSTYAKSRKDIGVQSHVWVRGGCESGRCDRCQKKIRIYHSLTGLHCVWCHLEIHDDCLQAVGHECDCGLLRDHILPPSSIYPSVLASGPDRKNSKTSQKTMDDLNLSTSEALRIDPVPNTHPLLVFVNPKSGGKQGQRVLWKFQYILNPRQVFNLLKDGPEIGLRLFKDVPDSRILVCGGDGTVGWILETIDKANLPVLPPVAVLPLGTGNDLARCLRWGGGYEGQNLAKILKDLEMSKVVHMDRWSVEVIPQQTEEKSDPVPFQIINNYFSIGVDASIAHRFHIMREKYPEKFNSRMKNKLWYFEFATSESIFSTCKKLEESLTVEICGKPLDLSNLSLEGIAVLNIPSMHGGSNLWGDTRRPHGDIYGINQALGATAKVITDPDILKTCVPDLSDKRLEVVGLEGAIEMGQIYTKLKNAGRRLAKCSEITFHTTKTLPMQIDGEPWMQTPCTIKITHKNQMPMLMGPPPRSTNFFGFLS
Protocol: Madin-Darby canine kidney (MDCK) cells stably expressing One Strep Tag DGKα (OST-DGKα) were prepared by infecting MDCK cells with a vector expressing an inducible OST tagged DGKα constructs. MDCK cells infected with empty vector were used as controls. MDCK cells were cultured in MEM (minimal essential medium) with 5% FBS (foetal bovine serum) and 1% antibiotic–antimycotic solution. Routinely, cells were splitted every 3–4 days with trypsin–EDTA 0.25% in standard 100 mm dishes.
Large cultures of MDCK cells for enzyme preparation were done by plating 5 × 10^6 cells in 245 mm^2 dishes. Once they reached nearly 70% confluence, cells were treated with doxycycline (1 µg/mL, two days). […] Cells were collected with a rubber scraper, homogenised by passing them through a 29 G-needle syringe 20 times and stored in aliquots at –80 °C. Presence of OST-DGKα was confirmed by western blotting and enzyme assay, transduced DGKα has an activity >100 folds the endogenous DGK.
Essentionally, the same procedure was followed as reported previously in Velnati et al.[9] In brief, DGK activity was assayed by measuring initial velocities (5 min at 27 °C) in presence of saturating substrate concentrations. Reaction conditions: 0.9 µg/µL 1,2-dioleoyl-sn-glycerol, 5 mM ATP, 0.01 µCi/µL [γ^32P]-ATP, 1 mM sodium orthovanadate, 10 mM MgCl2, 1.2 mM EGTA in 7.5 mM Hepes pH 8[12]. Reaction mixture is assembled mixing enzyme (24.5 µL of homogenate), 100× inhibitor or DMSO (0.5 µL), 5× ATP solution (10 µL of 25 mM ATP, 0.05 µCi/µL [γ^32P]-ATP (Perkin-Elmer, Milan, Italy), 5 mM sodium orthovanadate, 50 mM MgCl2), and 3.3× DAG solution (15 µL of 3 µg/µL 1,2-dioleoyl-sn-glycerol resuspended by sonication in 4 mM EGTA in 25 mM Hepes pH 8). The reaction was stopped after 5 min by adding 200 µL of freshly prepared 1 M HCl and lipid was extracted by adding 200 µL of CH3OH:CHCl3 1:1 solution and vortexing for 1 min. The two phases were separated by centrifugation (12,000 RCF for 2 min). Twenty-five microlitres of the lower organic phase was spotted in small drops on silica TLC plates. TLC was run 10 cm and dried before radioactive signals were detected by GS-250 molecular imager and was quantified by quantity one (Bio-Rad, Hercules, CA) software assuring the absence of saturated spots.
Percentage residual activity was calculated as follows: (OST-DGKα homogenate with inhibitor – vector homogenate)/(OST-DGKα homogenate with DMSO – vector homogenate)×100.
Data for the screen on OST-DGKα homogenates are the mean of duplicates. The compounds showing inhibitory activity in this assay were tested >4 times and the mean ± SEM is reported.
To calculate IC50 values of active inhibitors, the inhibitor activity was measured at least three times at 0.1, 1.0, 10.0, and 100.0 µM concentration. Data were analysed using [inhibitor] vs. normalised response parameters with least square [ordinary] curve fitting method in GraphPad PRISM 8.0 software (GraphPad Software, La Jolla, CA) mentioning 95% confidence interval and IC50 values always greater than 0.0. […] In all the experiments, the data were normalised with the controls.
Each inhibitor was tested in duplicate at least once, and DGKα activity was expressed as percentage of residual DGKα activity compared to DMSO control in the same assay. Assay uses OST-DGKα overexpressing cell lysates in presence of saturating exogenous DAG and ATP. We considered R59022 (commercially available) and the lead compound Amb63975230 as our reference molecules.
To measure the inhibitor potency, we determined the IC50 values for the compounds that resulted active when tested at 100 µM by measuring the residual OST-DGKα activity over a dose range of inhibitor concentrations (0.1 µM, 1.0 µM, 10.0 µM, and 100.0 µM).

DGKα [4] = target: T1, DGKα; set-up: expressed in transfected cells; host or cells: MDCK cells (vector-infected, doxycycline-induced), crude homogenate; method as in PMID 30611057; conditions: in our assay system; cited from earlier work
serotonin receptors [5] = test: Superoxide anion production: serotonin effect on PMA-induced oxidative burst in monocytes; assay type: cell-based; conditions: drugs 10 µM, 1 h; serotonin 1 µM; PMA 1 µM 30 min; human monocytes
Protocol: Human monocytes were isolated from healthy anonymous human buffy coats (provided by the Transfusion Service of Ospedale Maggiore della Carità, Novara, Italy) by the standard technique of dextran sedimentation and Histopaque (density = 1.077 g cm^3, Sigma-Aldrich, Milano, Italy) gradient centrifugation (400×g, 30 min, room temperature) and recovered by fine suction at the interface, as described previously. Purified monocytes populations were obtained by adhesion (90 min, 37 °C, 5% CO2) in serum-free RPMI 1640 medium (Sigma-Aldrich, Milano, Italy) supplemented with 2 mM glutamine and antibiotics. Cell viability (trypan blue dye exclusion) was usually >98%.
All the experiments were performed in triplicate using cells isolated from each single donor.
Monocytes (250,000 cells/well) were treated for 1 h with the indicated drugs (10 µM) with or without serotonin (1 µM). Then, cells were stimulated with phorbol 12-myristate 13-acetate (PMA; Sigma-Aldrich, Milano, Italy) 1 µM for 30 min. PMA is a well-known stimulus that induces a strong and significant respiratory burst via PKC activation. Superoxide anion production was then evaluated by the superoxide dismutase (SOD)-sensitive cytochrome C (CytC) reduction assay and expressed as nmoles CytC reduced/10^6 cells/30 min, using an extinction coefficient of 21.1 mM. To avoid interference with spectrophotometrical recordings, cells were incubated with RPMI 1640 without phenol red, antibiotics, and FBS.
To this purpose, we measured the effect of serotonin on PMA-induced oxidative burst in human monocytes. As previously shown, 1 µM serotonin reverses the oxidative burst to control values.
Figure 8. […] Results are expressed as n moles of reduced cytochrome C/10^6 cells. Data are means ± SEM of 10 independent experiments performed in triplicate.

SAP-deficient T cells = test: RICD assay in SAP silenced T cells; assay type: cell-based, human; conditions: 10 µM, 30 min pre-treatment; OKT3 10 ng/mL, 24 h; SAP siRNA
Protocol: PBL were isolated from healthy anonymous human donors by Ficoll-Paque PLUS (GE Healthcare, Chicago, IL) density gradient centrifugation, washed, and resuspended at 2 × 10^6 cell/mL in RPMI-GlutaMAX containing 10% heat inactivated FCS, 2 mM glutamine, and 100 U/mL of penicillin and streptomycin. T cells were activated with 1 µg/mL anti-CD3 (UCHT1) and anti-CD28 (clone CD28.2) antibodies. After three days, activated T cells were washed and cultured in medium additionated of 100 IU/mL rhIL-2 (Peprotech, Rocky Hill, NJ) at 1.2 × 10^6 cells/mL for ≥7 days by changing media for every 2–3 days.
Activated human PBLs were transfected with 200 pmol of siRNA oligonucleotides specific for the target protein (Stealth Select siRNA; Life Technologies, Carlsbad, CA) or a non-specific control oligo (Life Technologies, Carlsbad, CA). Transient transfections were performed using Amaxa nucleofector kits for human T cells (Lonza, Basel, Switzerland) and the Amaxa Nucleofector II or 4D systems (programmes T-20 or EI-115). Cells were cultured in IL-2 (100 IU/mL) for four days to allow target gene knockdown. Knockdown efficiency was periodically evaluated by Western blotting.
To test restimulation induced cell death, activated T cells (10^5 cells/well) were plated in triplicate in 96-well round-bottom plate and treated with anti-CD3 (clone OKT3) (10 ng/mL) in RPMI-GlutaMAX supplemented with 100 IU/mL rhIL-2 for 24 h. In these assays, inhibitors (10 µM) were added 30 min before the restimulation with OKT3. 24 h after treatment, cells were stained with 20 ng/mL propidium iodide and collected for a constant time of 30 s per sample on Attune Nxt Flow Cytometer (Thermo Fisher Scientific, Waltham, MA). Cell death is expressed as % cell loss and calculated as: % cell loss=(1−(number of viable cells in sample/number of viable cells in control)×100)
Results were expressed as mean ± standard error of the mean (SEM). We always compared controls and SAP silenced lymphocytes from the same donors as there is a large individual variability in RICD sensitivity.
To evaluate inhibitor efficacy in physiological context, we modelled XLP-1 by silencing SAP in primary peripheral blood T lymphocytes (PBLs) and restimulating them with anti-CD3 antibody (OKT3 10 ng/mL, 24 h). We pre-treated the cells with the indicated inhibitors for 30 min at a concentration of 10 µM[8].
Figure 9. DGKα inhibitors partially restores apoptosis in SAP deficient lymphocytes. […] After 4 days, the cells were restimulated with CD3 agonist OKT3 (10 ng/mL) in presence of respective inhibitor. Vehicle (DMSO) was used as control. Twenty-four hours later, the % of cell loss was evaluated by PI staining. Data are the mean ± SEM of nine independent experiments performed in triplicate.

serotonin receptors [6] = conditions: read-out: IC50 as serotonin antagonist; cited from earlier work
dopaminergic receptors = target: dopaminergic receptors; set-up: method as in PMID 2860558; conditions: cited from earlier work
[7] = set-up: method as in PMID 27974147; conditions: in human; cited from earlier work

| effect on serotonin action on PMA-induced oxidative burst (serotonin receptors [5]) | SMILES | IC50 (5HT2A) [nM] | t1/2 [1] [h] | DGK isoforms targeted (DGK isoforms) | rescue of defective RICD in T cells from XLP-1 patients [2] | effect in an in vivo model of XLP-1 (XLP-1 model) | inhibition at 100 µM (DGKα [3]; 100 µM) [%] | remaining activity at 100 µM (DGKα [3]; 100 µM) [%] | IC50 (DGKα [3]; residual OST-DGKα activity at 0.1, 1.0, 10.0 and 100.0 µM) [nM] | IC50 (DGKα [4]) [nM] | rescue of RICD (apoptosis) in SAP-deficient T cells (SAP-deficient T cells) | IC50 (serotonin receptors [6]) [nM] | IC50 (dopaminergic receptors) [nM] | t1/2 [7] [h] |
| --- | --- | --- | --- | --- | --- | --- | --- | --- | --- | --- | --- | --- | --- | --- |
| – | Cc1nc2sccn2c(=O)c1CCN1CCC(=C(c2ccccc2)c2ccc(F)cc2)CC1 [Compound R59022] | 2.2 | ~2 | type III and V (ε e θ) | rescued | beneficial effects | 73 | 27 | 15200 ± 5800 | – | – | – | – | – |
| – | O=c1c2ccccc2[nH]c(=S)n1CCN1CCC(=C(c2ccc(F)cc2)c2ccc(F)cc2)CC1 [Compound R59949, 3-[2-(4-[bis-(4-fluorophenyl)methylene]-1-piperidinyl)ethyl]-2,3-dihydro-2-thioxo-4(1h)quinazolinone] | 9.2 | ~2 | type I and II (γ, δ e κ) | rescued | – | – | 28 | – | 11000 | – | – | – | – |
| impaired serotonin action | O=C(c1ccc(F)cc1)C1CCN(CCn2c(=O)[nH]c3ccccc3c2=O)CC1 [ketanserin, reference compound] | – | – | – | – | – | – | – | – | – | inactive | – | – | – |
| impaired serotonin action | Cc1nc2sccn2c(=O)c1CCN1CCC(=C(c2ccc(F)cc2)c2ccc(F)cc2)CC1 [ritanserin] | – | – | – | – | – | – | – | – | 17000 | – | 0.9 | 69 | 40 |
